How the values were obtained:
yeast DNA = test: Photobinding to yeast DNA in vivo (radiolabelled drug plus 365 nm light); format: binding, Saccharomyces cerevisiae
Experimental: (§1) The radioactivity of an aliquot (0.1 ml) of this solution was measured in 5 ml of scintillation mixture (Nuclear Entreprise, Ltd., Edinburgh, Scotland, NE 250).
(§2) For the in vivo determinations stationary phase cells of the haploid wild type strain N 123 were prepared as previously described.
(§3) 2 ml cell suspensions were exposed to several doses of 365 nm light. In parallel, non irradiated samples were incubated for the same periods. Immediately after incubation and/or irradiation, the samples were centrifuged and the pellet was washed 3 times with 5 ml of saline (0.9% NaCl). The washed cell pellet was resuspended in 1 ml of saline and 1 ml of 2 N NaOH was added in order to hydrolyze the RNA. The suspension was incubated overnight in the dark at room temperature, then cooled down on ice, and 2 ml of 50% TCA were added slowly. The samples were left 20 minutes on ice and the precipitated DNA was filtered on a glass fiber filter disc (Whatman GF/A, 2.1 cm diameter). In some cases the filtrate containing the acid-soluble material was kept aside, and the radioactivity of an aliquot added to 5 ml of NE250 scintillation mixture measured. The precipitate was washed 3 times with 5 ml of 5% cold TCA and 5 ml of 70% ethanol. The filters were then dried and the radioactivity measured in plastic counting vials containing 5 ml of scintillation mixture (NE 250) in a Tricarb Packard scintillation spectrophotometer.

yeast RNA = test: Photobinding to yeast RNA in vivo (radiolabelled drug plus 365 nm light); format: binding, Saccharomyces cerevisiae; details: for cpm for 10^8 cells: RNA
Experimental: as §1, §2, §3

[1] = 5 min, 6.3 × 10^4 ergs.mm^-2 365 nm
[2] = 10 min, 12.6 × 10^4 ergs.mm^-2 365 nm
[3] = 15 min, 18.9 × 10^4 ergs.mm^-2 365 nm
[4] = 20 min, 25.2 × 10^4 ergs.mm^-2 365 nm
[5] = 30 min, 38.8 × 10^4 ergs.mm^-2 365 nm
[6] = 40 min, 50.4 × 10^4 ergs.mm^-2 365 nm
[7] = 60 min, 75.6 × 10^4 ergs.mm^-2 365 nm
[8] = binding to RNA, 5-60 min, no 365 nm light

CCOC(=O)c1cc2cc3ccoc3cc2oc1=O [Example 3-CPs, 3-carboethoxypsoralen]
Molecules 3-CPs/μg DNA (yeast DNA; 5-60 min, no 365 nm light): 0.012 Molecules 3-CPs/μg DNA × 10^14
cpm for 10^8 cells (yeast DNA; 5-60 min, no 365 nm light): 67.75 cpm for 10^8 cells
μg 3-CPs/μg DNA (yeast DNA; 5-60 min, no 365 nm light): 0.05 μg 3-CPs/μg DNA × 10^-2
molecules linked to DNA per cell (yeast DNA; 18.9×10^3 J/m^2, 5×10^-5 M): 10.5×10^6 molecules per cell
binding ratio: pyrimidine bases per 1 bound molecule (yeast DNA; 18.9×10^3 J/m^2, 5×10^-5 M, on average): 2 pyrimidine bases
Molecules 3-CPs/μg DNA (yeast DNA; [1]): 0.92 Molecules 3-CPs/μg DNA × 10^14
cpm for 10^8 cells (yeast DNA; [1]): 5030.5 cpm for 10^8 cells
μg 3-CPs/μg DNA (yeast DNA; [1]): 3.9 μg 3-CPs/μg DNA × 10^-2
binding to DNA in vivo compared with in vitro (yeast DNA; 365 nm light): higher in the in vivo condition than in vitro
Molecules 3-CPs/μg DNA (yeast DNA; [2]): 1.34 Molecules 3-CPs/μg DNA × 10^14
cpm for 10^8 cells (yeast DNA; [2]): 9409 cpm for 10^8 cells
μg 3-CPs/μg DNA (yeast DNA; [2]): 5.7 μg 3-CPs/μg DNA × 10^-2
Molecules 3-CPs/μg DNA (yeast DNA; [3]): 2.1 Molecules 3-CPs/μg DNA × 10^14
cpm for 10^8 cells (yeast DNA; [3]): 11386.5 cpm for 10^8 cells
μg 3-CPs/μg DNA (yeast DNA; [3]): 9 μg 3-CPs/μg DNA × 10^-2
Molecules 3-CPs/μg DNA (yeast DNA; [4]): 2.8 Molecules 3-CPs/μg DNA × 10^14
cpm for 10^8 cells (yeast DNA; [4]): 15650.2 cpm for 10^8 cells
μg 3-CPs/μg DNA (yeast DNA; [4]): 12.3 μg 3-CPs/μg DNA × 10^-2
Molecules 3-CPs/μg DNA (yeast DNA; [5]): 2.8 Molecules 3-CPs/μg DNA × 10^14
cpm for 10^8 cells (yeast DNA; [5]): 15307 cpm for 10^8 cells
μg 3-CPs/μg DNA (yeast DNA; [5]): 12 μg 3-CPs/μg DNA × 10^-2
Molecules 3-CPs/μg DNA (yeast DNA; [6]): 2.6 Molecules 3-CPs/μg DNA × 10^14
cpm for 10^8 cells (yeast DNA; [6]): 14248 cpm for 10^8 cells
μg 3-CPs/μg DNA (yeast DNA; [6]): 11 μg 3-CPs/μg DNA × 10^-2
Molecules 3-CPs/μg DNA (yeast DNA; [7]): 2.3 Molecules 3-CPs/μg DNA × 10^14
cpm for 10^8 cells (yeast DNA; [7]): 16476 cpm for 10^8 cells
μg 3-CPs/μg DNA (yeast DNA; [7]): 10 μg 3-CPs/μg DNA × 10^-2
dark binding with DNA relative to that at lowest dose of irradiation (yeast DNA; dark, 50 minutes): around 10%
365 nm light dose up to which binding with DNA increases linearly, then levels off (yeast DNA; in vivo): up to 25.2×10^3 J/m^2
amount linked to DNA compared with RNA per cell (yeast DNA; in vivo): about the same as that bound to RNA per cell
amount linked to DNA relative to 8-MOP (yeast DNA; in vivo): about 15 times more
binding to DNA compared with 8-MOP (yeast DNA; in vivo): binds to DNA much more efficiently than 8-MOP
difference in photoreactivity with DNA in vivo, 3-CPs vs 8-MOP (yeast DNA; in vivo): 15 factor
difference in photoreactivity with DNA, 3-CPs vs 8-MOP (yeast DNA; in vivo): ≤ 20 factor
photoaffinity to DNA compared with RNA (yeast DNA; molecular basis): much higher than to RNA
photoaffinity for RNA (yeast RNA): relatively low photoaffinity for RNA
cpm for 10^8 cells (yeast RNA; 5-60 min, no 365 nm light): 1285 cpm for 10^8 cells
cpm for 10^8 cells (yeast RNA; [1]): 7130 cpm for 10^8 cells
cpm for 10^8 cells (yeast RNA; [2]): 11040 cpm for 10^8 cells
cpm for 10^8 cells (yeast RNA; [3]): 14170 cpm for 10^8 cells
cpm for 10^8 cells (yeast RNA; [4]): 18780 cpm for 10^8 cells
cpm for 10^8 cells (yeast RNA; 30 min, 37.8 × 10^4 ergs.mm^-2 365 nm): 25380 cpm for 10^8 cells
cpm for 10^8 cells (yeast RNA; [6]): 29240 cpm for 10^8 cells
cpm for 10^8 cells (yeast RNA; [7]): 31730 cpm for 10^8 cells
Molecules 3-CPs/μg DNA (yeast RNA; [8]): 0.0023 Molecules 3-CPs/μg DNA × 10^14
μg 3-CPs/μg DNA (yeast RNA; [8]): 0.01 μg 3-CPs/μg DNA × 10^-2
